Measured values: a melting point compilation (Tetko et al.; mined from patent text by program, amines drawn as free bases though some values may be those of a salt)
Residues, ends and D or L forms follow the SMILES beside them. *: point of attachment. Boc = CC(C)(C)OC(=O)*

| Structure (SMILES) | melting point [°C] |
| --- | --- |
| CCCc1ncc(C(=O)OCC)c(NCc2ccc(-c3ccccc3-c3nnn[nH]3)cc2)n1 | 146 to 147 |
| CCCN(CCC)C1Cc2c[nH]c3ccc(C(=O)C(C)C)c(c23)C1 (centres undefined) | 128 |
| CC(=O)N(C)C(Cc1ccccc1N)c1sccc1C (centres undefined) | 176 to 182 |
| COc1ccc2c(c1)C(CCN1CC=C(c3ccccc3)CC1)C(C)N2C(C)=O (centres undefined) | 113 to 115 |
| CCOCOc1ccc(-c2ccc(C(F)(F)F)cc2)cc1Sc1cc(-c2ccc(C(F)(F)F)cc2)ccc1OCOCC | 61 to 62 |
| O=[N+]([O-])c1cc(-c2ccoc2)ccc1Nc1cccc(-n2cccc2)c1 | 129 to 131 |
| CNC(=O)CNC(=O)CN1CCCC1=O | 139 to 140 |
| Oc1ccc(C2CCc3ccc(O)cc3O2)cc1 (centres undefined) | 110 to 111 |
| CC(C)(C)OC(=O)c1cccc(C#N)n1 | 156 to 157 |
| CN(C)CCOC(=O)c1cccc(Nc2cc(C(C)(C)C)c(O)c(C(C)(C)C)c2)c1 | 119 to 120 |
| CN(C)C(=O)c1cc(-c2ccc(-c3ccco3)cc2)n(-c2ccc(S(C)(=O)=O)c(F)c2)n1 | 167 to 168 |
| Nc1c(-c2ccc(Cl)cc2)nc2ccc(F)cc2c1C(=O)O | 241 to 243 |
| O[C@@H]1CN=C(c2ccc(Cl)c(Cl)c2)O[C@H]1c1ccccc1 (racemic) | 158 |
| Nc1ccc2[nH]nc(-c3ccccc3)c2c1 | 104 |
| CC(C)(C)C(=O)Nc1ccc(SSc2ccc(NC(=O)C(C)(C)C)cc2C(N)=O)c(C(N)=O)c1 | 288 to 289 |
| CC(C)(C)c1cc(-c2nc3n(c2C#N)CCS3)cc(C(C)(C)C)c1O | 207 to 208 |
| CC(N)Cn1ncc2ccc3c(c21)C(N)C(O)CO3 (centres undefined) | 84 to 88 |
| COc1cc2c(cc1-c1ccccc1F)NC(=O)CC(c1cccc(-n3ccnc3C)c1)=N2 | 220 to 222 |
| COc1ccc(-c2nc(CCn3ccnc3)nc3cc(OC)c(OC)cc23)cc1OC | 147 to 148 |
| C#CCn1c(-c2ccccc2)nc(O)c(CC)c1=O | 159 to 160 |
| Cc1cc(N)c(Cl)c(N)c1 | 114 to 116 |
| Cc1cccc(Cl)c1Nc1nc2ccc(-c3c(C)cccc3C)cc2n2cncc12 | 140 to 150 |
| CCC(CC)Nc1cc(-c2c(-c3cccc(C)c3)nc3cccnn23)ccn1 | 155 to 156 |

| Structure (SMILES) | melting point [°C] |
| --- | --- |
| COC1(c2csc(Sc3ccc4c(c3)OCC/C4=N\O)c2)CCOCC1 | 137 to 138 |
| CCn1c(Oc2cccc(NS(C)(=O)=O)c2)nnc1[C@@H](C)NS(=O)(=O)c1ccc(Cl)c(Cl)c1 | 117 to 118 |
| CCOC(=O)/C(=N\OCC=C(Cl)Cl)c1csc(N)n1 | 135 to 136 |
| O=C1OCC2CCC1(c1ccc(Cl)cc1Cl)O2 (centres undefined) | 136 to 137 |
| CS(=O)(=O)c1ccc(-c2coc3ccc(-c4nnc(O)o4)cc23)cc1 | 284 to 285 |
| CS(=O)c1c(C#N)nn(-c2c(Cl)cc(C(F)(F)F)cc2Cl)c1NCC(N)=O (centres undefined) | 155 to 157 |
| Cc1c(-c2ccc(F)cc2)oc2c(-c3ccc(S(C)(=O)=O)cc3)c(-c3ccc(F)cc3)nn12 | 289 to 291 |
| CCOC(=O)c1cc(-c2ccc(OC)cc2)n(-c2ccc(OC)cc2)n1 | 97 to 98 |
| N#Cc1cc(I)c(N)c(C(F)(F)F)c1 | 86 to 88 |
| Cc1cc(F)c(N)cc1N | 112 |
| Nc1cc(S(=O)(=O)c2ccccc2)ccc1Cl | 105 to 107 |
| CC(C)CCCC(C)C1CCC2C3CC=C4CC(OC(=O)C(C)(C)CO)CCC4(C)C3CCC12C (centres undefined) | 174 to 176 |
| Oc1ccc2c(c1)OCC(c1ccc(C(F)(F)F)cc1)C2c1ccc(OCCN2CCCCC2)cc1 (centres undefined) | 117 to 119 |
| Cc1cc(N)c2c(c1Cl)CC(C)O2 (centres undefined) | 157 to 160 |
| CC(C)(C)c1cc(CC(O)=S)cc(C(C)(C)C)c1O | 130 |
| CCOc1cc(C(=O)c2c(-c3ccc(OC)cc3)sc3cc(OC)ccc23)cc(OCC)c1OCC | 108 to 110 |
| Nc1cccc2cc(-c3nccs3)[nH]c12 | 173 to 174 |
| NS(=O)(=O)c1ccc(-c2cnn(-c3ccc(F)c(F)c3)c(=O)c2Oc2ccc(F)cc2)cc1 | 224 to 226 |
| CN1CCN(C(=NO)C2=Nc3ccc(Cl)cc3C(c3ccccc3F)=NC2)CC1 | 198 to 200 |
| Cc1cc(C)c(N)nn1 | 123 to 126 |
| CCn1cnc2c(=O)[nH]c(N)nc21 | > 300 |
| O=C(O)Cc1c(C(=O)c2cccc(OCc3ccccc3)c2)[nH]c2cc(Cl)ccc12 | 174 to 177 |

Next, values leading:

| melting point [°C] | Structure (SMILES) |
| --- | --- |
| > 280 | COc1cccc2c1CN(c1c(F)c(F)c3c(=O)c(C(=O)O)cn(C4CC4)c3c1F)C2 |
| 105 to 106 | CCCS(=O)(=O)c1cc(C(=O)NCC2CCCN2CC)c(OC)cc1N (centres undefined) |
| 91.5 to 93.2 | COc1ccc(C(=O)O)c(OCCN2CCC(c3cn(Cc4ccoc4)c4ncccc34)CC2)c1 |
| 259 to 260 | Cc1nnc2cc(C(=O)O)cc(Cl)n12 |
| 109 to 111 | CCOc1ccc(OCC(C)(NS(=O)(=O)Cc2ccccc2)C(=O)N2CCOCC2)cc1 (centres undefined) |
| 115 to 116 | CCCO/N=C(\C(=O)OC)c1csc(N)n1 |
| 69 to 71 | COC(=O)C(=O)c1c(F)c(F)c(OCCOc2ccc3ccccc3c2)c(F)c1F |
| 273 to 275 | Cc1nc(-n2cnn(CC3CC3(F)F)c2=O)sc1C(N)=O (centres undefined) |
| 148 to 149 | COc1ccc(C2CC(=O)N(C(N)=O)N2Cc2ccccc2)cc1OC1CCCC1 (centres undefined) |
| 72 to 74 | Cc1cccc(N2CCN(CCC3CN(C)C(=O)O3)CC2)c1 (centres undefined) |
| 153 to 155 | CN(C)C(=O)CCSC(SCCC(=O)O)c1cccc(C=Cc2ccc3ccc(Cl)cc3n2)c1 (centres undefined) |
| 172 to 174 | O=C1CCNC(=O)C1C(=O)c1ccc(Cl)c(Cl)c1 (centres undefined) |
| 48 to 50 | CC(C)(C)C(=O)OCOP(=O)(CCCCc1ccccc1)CC(=O)O (centres undefined) |
| 72 to 74 | CC(C)(C)OC(=O)CNC(=O)CC(C1CCCCC1)C1CCCCC1 |
| 176 to 179 | COc1cc(NC(=O)Nc2c(-c3ccccc3C)c3cc4c(cc3oc2=O)CCC4)cc(OC)c1O |
| 124 | Nc1c(Cl)cc(C(=O)NCCC23CCCN2CCC3)c2c1CCO2 |
| 167 to 169 | CCc1noc2cc(-c3ccccc3)n(C)c(=O)c12 |
| 219 to 221 | CC(=O)NCCCC(C)C1CC=C2C3=C(CCC21C)C1(C)CCC(O)C(C)(C)C1CC3 (centres undefined) |
| 200 to 202 | CC1(C)Oc2cc(Br)sc2C(N2CCCCC2=O)C1O (centres undefined) |
| 100 to 104 | O=C1C(CCO)Oc2cc([N+](=O)[O-])ccc2N1Cc1ccc([N+](=O)[O-])cc1 (centres undefined) |
| 149 to 150 | Cc1c(CC(=O)O)oc2ccc(Cc3ccccc3)cc12 |
| 96 to 98 | CON(C(=O)c1cccnc1Cl)C1CCCCC1 |
| 100 | Cc1cc(-n2ccnc2)c2cccc(OCc3c(Cl)ccc(S(=O)(=O)N4CCC(CO)CC4)c3Cl)c2n1 |
| 130 to 131 | CN(C)CCNc1ccc(S(C)(=O)=O)cc1[N+](=O)[O-] |
| 189 to 190 | CC(C)CC(NC(=O)C(Cc1ccc(O)cc1)NC(=O)OC(C)(C)C)C(=O)NCC(=O)O (stereo not drawn) (Boc-Tyr-Leu-Gly-OH; configuration not given here) |
| 273 to 276 | O=C(O)c1cnc2c3ccccc3c(O)cn2c1=O |
| 64.5 | CC12NCCCN1C(=O)c1ccccc12 (centres undefined) |

| melting point [°C] | Structure (SMILES) |
| --- | --- |
| 88 to 90 | CC1(C)C2CC[C@@]1(C)C(=O)C(C(=O)Nc1ccc(Cl)cc1)C2=O (some centres undefined) |
| 143 to 145 | O=C(NCc1cccc(C(F)(F)F)c1)c1ccc2n1Cc1ccccc1N(C(=O)COc1ccc(Cl)cc1)C2 |
| 91 to 93 | CCC(CC)CCc1nn(C)c2cc(C(=O)OC)ccc12 |
| 93 to 94 | CCC(CC(=O)NC(=O)OC(C)(C)C)Nc1ccc(Cl)cc1 (centres undefined) |
| 106 to 107 | COCCOc1ccc(CSc2cnn(C(C)(C)C)c(=O)c2Cl)cc1 |
| > 250 | CCC1(O)CC(=O)OCc2c1cc1n(c2=O)Cc2cc3c4c(c(F)cc3nc2-1)OCN(Cc1ccccc1)C4 (centres undefined) |
| 208 to 210 | CC(=O)NC[C@H]1CN(c2ccc(N3CCC(n4nnc(N5CCN(C#N)CC5)n4)CC3)c(F)c2)C(=O)O1 |
| 98 to 99 | Brc1cncc(N2C=CCC2)c1 |
| > 250 | Cc1nc2c(N)nc3ccccc3c2n1CC1(O)CCCCC1 |
| 169 to 171 | O=C(O)c1cccc(C(=O)NCc2ccc(F)c(-c3cccc(CO)c3)c2)c1 |
| 256 to 258 | O=c1[nH]c2ncc(-c3ccc(O)cc3)nc2n1CC1CCCO1 (centres undefined) |
| 141 to 142 | O=C(NCCCC(=O)N1CCCC1=O)c1cc(Br)no1 |
| 106 | Cc1c(NC(=O)c2ccc(OCC3CCOC3)cc2)ccc2cc(CNC(C)C)cnc12 (centres undefined) |
| 88 to 90 | CO/C=C(/C(=O)OC)c1ccccc1Oc1cc(Cl)nc(Cl)n1 |
| 92.5 to 94.5 | COC(=O)CS(=O)(=O)CCCCCCn1nc(-c2ccccc2)c(-c2ccccc2)c1-c1ccccc1 |
| 86 | CCCNC(=O)c1cncs1 |
| 45 to 47 | CCCCCCCC/C=C\CCCCCCCC(=O)CCCNC(=O)CCNC(=O)C1OC(C)(C)OCC1(C)C (centres undefined) |
| 266 to 270 | CCCCc1nc(N)c(N=Nc2ccccc2)c(=O)[nH]1 |
| 69 to 71 | CSC(=C[N+](=O)[O-])NCCSCc1cc(C)c(CN(C)C)s1 |
| 120 | O=C(c1ccc(-c2cnc3c(c2)N(Cc2ccccc2)CCN3)cc1)N1CCC(N2CCCC2)CC1 |
| 136 to 137 | CCCOc1ccc(C(=O)CBr)cc1-c1nc2c(CCC)nn(C)c2c(=O)[nH]1 |
| 158 to 162 | CCS(=O)c1cc(C(=O)NCC2CCCN2CC2CC2)c(OC)cc1N (centres undefined) |
| 127 to 128 | CCC(CC)c1ccc(Cl)c2nc3n(c12)CCCCN3c1ccc(C(=O)NC)cc1C |
| 164 to 166 | CNS(=O)(=O)c1ccc(N2CC(CO)OC2=O)cc1 (centres undefined) |
| 185 to 186 | CC(C)(C)Cc1c(CC(C)(C)C(=O)O)n(Cc2ccc(Cl)cc2)c2ccc(OCc3ccc4scc(Cl)c4n3)cc12 |
| 205 to 207 | CN1Cc2c(c3cc(CCN4CCN(c5nsc6ccccc56)CC4)ccc3[nH]c2=O)C1 |
| 151 to 153 | Cc1nc2c(OCc3ccccc3)cc(Br)cn2c1C |
